# What was measured:
# Assay type in all cases: physicochemical
# [1] = Example 5: effect of inositol isomers on dissolution of L-leucine, LC/UV of filtrate; conditions: for enhancement of dissolution rate of L-leucine by inositol isomer: 0.1 g isomer, 3.50 g L-leucine; for Leu dissolved at 30 seconds (g/16 oz.) / Leu dissolved at 60 seconds (% of total Leu) / Leu dissolved at 60 seconds (g/16 oz.): 3.50 g L-leucine with 0.1 g/16 oz. inositol isomer, water 21° C., 400 rpm
# Description: The LC/UV system used to perform the tests comprised the following: 1) Column: YMC ODS-AQ, 4.6 x 250 mm, 5 μm, Waters […]; 2) Mobile Phase: Milli-Q Plus water; 3) Flow Rate: 0.4 mL/minute; 4) Temperature: 40° C.; 5) Detection: UV at 192 nm; 6) Injection: 2 μL of filtrate; and 7) Run Time: 20 minutes.
# [2] = Example 3: aqueous dissolution of powdered branched-chain amino acid blend (first material) with varying myo-inositol, LC/UV of filtrate; conditions: for Dissolved amino acid (g per 16 oz.): 7.00 g BCAA blend, water 21° C., 400 rpm
# Description: Example 3 evaluates the effect that varying the myo-inositol concentration has on the aqueous dissolution of branched-chain amino acids. Two branched-chain amino acid materials were tested. The first material tested was 7.00 grams of a powdered branched-chain amino acid blend comprising 50 wt. % leucine, 25 wt. % isoleucine, and 25 wt. % valine. The second material tested was 3.5 grams of powdered leucine. Each material was tested with varying levels of powdered myo-inositol, expressed as a percentage of 17.6 grams (e.g., a serving of powdered nutritional product). For example, 1% myo-inositol is 0.176 grams, 2% myo-inositol is 0.352 grams, and so forth. The branched-chain amino acid material and the specified amount of myo-inositol were added to 16 fluid ounces of Milli-Q Plus water at 21° C. and stirred at 400 rpm. After 30 seconds and 60 seconds of stirring, an aliquot was obtained and filtered through a 0.45 μm PTFE membrane (Pall Life Sciences, Acrodisc CR 25, P/N 4501), and the filtrate of the first material was tested for valine, isoleucine, and leucine using the LC/UV method described below, while the filtrate of the second material was tested for leucine using the same LC/UV method. The test results for the first material tested are shown in Table 3, while the test results for the second material tested are shown in Table 4.
# (§1) The LC/UV system used to perform the tests comprised the following: 1) Column: YMC ODS-AQ, 4.6 x 250 mm, 5 μm, Waters P/N AQ12S052546WT; 2) Mobile Phase: Milli-Q Plus water; 3) Flow Rate: 0.4 mL/minute; 4) Temperature: 40° C.; 5) Detection: UV at 192 nm; 6) Injection: 2 μL of filtrate; and 7) Run Time: 20 minutes.
# [3] = Example 4: aqueous dissolution of branched-chain amino acids in a powdered nutritional product with varying myo-inositol, LC/UV of filtrate; conditions: 17.6 g powdered nutritional product, water 21° C., 400 rpm
# Description: as §1
# Example 4 evaluates the effect that myo-inositol concentration has on the aqueous dissolution of branched-chain amino acids (valine, isoleucine, and leucine) in a powdered nutritional product. One serving (17.6 grams) of the powdered nutritional product contains 7.00 grams of a branched-chain amino acid blend comprising 50 wt. % leucine, 25 wt. % isoleucine, and 25 wt. % valine. A serving of the powdered nutritional product with a specified amount of myo-inositol was added to 16 fluid ounces of Milli-Q Plus water at 21° C. and stirred at 400 rpm. At each specified time point, an aliquot was obtained and filtered through a 0.45 μm PTFE membrane (Pall Life Sciences, Acrodisc CR 25, P/N 4501), and the filtrate was tested for valine, isoleucine, and leucine using the LC/UV method as described in Example 3.
# [4] = myo-inositol 0% of 17.6 g, 30 seconds
# [5] = myo-inositol 0% of 17.6 g, 60 seconds
# [6] = myo-inositol 1% of 17.6 g, 30 seconds
# [7] = myo-inositol 1% of 17.6 g, 60 seconds
# [8] = myo-inositol 2% of 17.6 g, 30 seconds
# [9] = myo-inositol 2% of 17.6 g, 60 seconds
# [10] = myo-inositol 4% of 17.6 g, 30 seconds
# [11] = myo-inositol 4% of 17.6 g, 60 seconds
# [12] = myo-inositol 8% of 17.6 g, 30 seconds
# [13] = myo-inositol 8% of 17.6 g, 60 seconds
smiles,measurement,setting,value
OC1C(O)C(O)C(O)C(O)C1O (stereo not drawn) [epi-inositol],enhancement of dissolution rate of L-leucine by inositol isomer,[1],most enhanced
same,Leu dissolved at 30 seconds (g/16 oz.),[1],0.626 ± 0.223 g/16 oz.
same,Leu dissolved at 60 seconds (% of total Leu),[1],33.2 ± 10.6 % of total Leu
same,Leu dissolved at 60 seconds (g/16 oz.),[1],1.16 ± 0.37 g/16 oz.
O[C@H]1[C@H](O)[C@@H](O)[C@H](O)[C@@H](O)[C@@H]1O [scyllo-inositol],Leu dissolved at 30 seconds (g/16 oz.),[1],0.450 g/16 oz.
same,Leu dissolved at 60 seconds (% of total Leu),[1],24.0 % of total Leu
same,Leu dissolved at 60 seconds (g/16 oz.),[1],0.841 g/16 oz.
OC1C(O)C(O)C(O)C(O)C1O (stereo not drawn) [cis-inositol],enhancement of dissolution rate of L-leucine by inositol isomer,[1],most enhanced
same,Leu dissolved at 30 seconds (g/16 oz.),[1],0.649 g/16 oz.
same,Leu dissolved at 60 seconds (% of total Leu),[1],36.3 % of total Leu
same,Leu dissolved at 60 seconds (g/16 oz.),[1],1.27 g/16 oz.
OC1C(O)C(O)C(O)C(O)C1O (centres unmarked) [muco-inositol],Leu dissolved at 30 seconds (g/16 oz.),[1],0.379 g/16 oz.
same,Leu dissolved at 60 seconds (% of total Leu),[1],21.5 % of total Leu
same,Leu dissolved at 60 seconds (g/16 oz.),[1],0.751 g/16 oz.
OC1C(O)C(O)C(O)C(O)C1O [L-chiro-inositol],Leu dissolved at 30 seconds (g/16 oz.),[1],0.472 g/16 oz.
same,Leu dissolved at 60 seconds (% of total Leu),[1],24.2 % of total Leu
same,Leu dissolved at 60 seconds (g/16 oz.),[1],0.848 g/16 oz.
"CC(C)[C@H](N)C(=O)O [Valine, L-Valine]",Dissolved amino acid (g per 16 oz.),[2]; [4],0.401 g per 16 oz.
same,Dissolved amino acid (g per 16 oz.),[2]; [5],0.730 g per 16 oz.
same,Dissolved amino acid (g per 16 oz.),[2]; [6],0.432 g per 16 oz.
same,Dissolved amino acid (g per 16 oz.),[2]; [7],0.690 g per 16 oz.
same,Dissolved amino acid (g per 16 oz.),[2]; [8],0.550 g per 16 oz.
same,Dissolved amino acid (g per 16 oz.),[2]; [9],1.01 g per 16 oz.
same,Dissolved amino acid (g per 16 oz.),[2]; [10],0.564 g per 16 oz.
same,Dissolved amino acid (g per 16 oz.),[2]; [11],0.924 g per 16 oz.
same,Dissolved amino acid (g per 16 oz.),[2]; [12],0.797 g per 16 oz.
same,Dissolved amino acid (g per 16 oz.),[2]; [13],1.29 g per 16 oz.
same,"valine/myo-inositol correlation on a molar basis, slope of plot (FIG. 2)","[2]; first material, 30 second time point",one valine molecule dissolves for every two molecules of myo-inositol added
same,Dissolved amino acid (g per 16 oz.),"[3]; myo-inositol 0%, 30 seconds",1.30 g per 16 oz.
same,Dissolved amino acid (g per 16 oz.),"[3]; myo-inositol 0%, 60 seconds",1.54 g per 16 oz.
same,Dissolved amino acid (g per 16 oz.),"[3]; myo-inositol 0%, 90 seconds",1.62 g per 16 oz.
same,Dissolved amino acid (g per 16 oz.),"[3]; myo-inositol 0%, 240 seconds",1.69 g per 16 oz.
same,Dissolved amino acid (g per 16 oz.),"[3]; myo-inositol 0%, 600 seconds",1.70 g per 16 oz.
same,Dissolved amino acid (g per 16 oz.),"[3]; myo-inositol 1%, 30 seconds",1.39 g per 16 oz.
same,Dissolved amino acid (g per 16 oz.),"[3]; myo-inositol 1%, 60 seconds",1.59 g per 16 oz.
same,Dissolved amino acid (g per 16 oz.),"[3]; myo-inositol 1%, 90 seconds",1.65 g per 16 oz.
same,Dissolved amino acid (g per 16 oz.),"[3]; myo-inositol 1%, 240 seconds",1.72 g per 16 oz.
same,Dissolved amino acid (g per 16 oz.),"[3]; myo-inositol 1%, 600 seconds",1.72 g per 16 oz.
same,Dissolved amino acid (g per 16 oz.),"[3]; myo-inositol 2%, 30 seconds",1.38 g per 16 oz.
same,Dissolved amino acid (g per 16 oz.),"[3]; myo-inositol 2%, 60 seconds",1.55 g per 16 oz.
same,Dissolved amino acid (g per 16 oz.),"[3]; myo-inositol 2%, 90 seconds",1.63 g per 16 oz.
same,Dissolved amino acid (g per 16 oz.),"[3]; myo-inositol 2%, 240 seconds",1.70 g per 16 oz.
same,Dissolved amino acid (g per 16 oz.),"[3]; myo-inositol 2%, 600 seconds",1.70 g per 16 oz.
same,Dissolved amino acid (g per 16 oz.),"[3]; myo-inositol 4%, 30 seconds",1.44 g per 16 oz.
same,Dissolved amino acid (g per 16 oz.),"[3]; myo-inositol 4%, 60 seconds",1.57 g per 16 oz.
same,Dissolved amino acid (g per 16 oz.),"[3]; myo-inositol 4%, 90 seconds",1.64 g per 16 oz.
same,Dissolved amino acid (g per 16 oz.),"[3]; myo-inositol 4%, 240 seconds",1.70 g per 16 oz.
same,Dissolved amino acid (g per 16 oz.),"[3]; myo-inositol 4%, 600 seconds",1.70 g per 16 oz.
same,Dissolved amino acid (g per 16 oz.),"[3]; myo-inositol 8%, 30 seconds",1.36 g per 16 oz.
same,Dissolved amino acid (g per 16 oz.),"[3]; myo-inositol 8%, 60 seconds",1.56 g per 16 oz.
same,Dissolved amino acid (g per 16 oz.),"[3]; myo-inositol 8%, 90 seconds",1.62 g per 16 oz.
same,Dissolved amino acid (g per 16 oz.),"[3]; myo-inositol 8%, 240 seconds",1.69 g per 16 oz.
same,Dissolved amino acid (g per 16 oz.),"[3]; myo-inositol 8%, 600 seconds",1.69 g per 16 oz.
"CC[C@H](C)[C@H](N)C(=O)O [Isoleucine, L-Isoleucine]",Dissolved amino acid (g per 16 oz.),[2]; [4],0.237 g per 16 oz.
same,Dissolved amino acid (g per 16 oz.),[2]; [5],0.495 g per 16 oz.
same,Dissolved amino acid (g per 16 oz.),[2]; [6],0.504 g per 16 oz.
same,Dissolved amino acid (g per 16 oz.),[2]; [7],0.908 g per 16 oz.
same,Dissolved amino acid (g per 16 oz.),[2]; [8],0.337 g per 16 oz.
same,Dissolved amino acid (g per 16 oz.),[2]; [9],0.714 g per 16 oz.
same,Dissolved amino acid (g per 16 oz.),[2]; [10],0.416 g per 16 oz.
same,Dissolved amino acid (g per 16 oz.),[2]; [11],0.791 g per 16 oz.
same,Dissolved amino acid (g per 16 oz.),[2]; [12],0.546 g per 16 oz.
same,Dissolved amino acid (g per 16 oz.),[2]; [13],0.972 g per 16 oz.
same,Dissolved amino acid (g per 16 oz.),"[3]; myo-inositol 0%, 30 seconds",0.978 g per 16 oz.
same,Dissolved amino acid (g per 16 oz.),"[3]; myo-inositol 0%, 60 seconds",1.36 g per 16 oz.
same,Dissolved amino acid (g per 16 oz.),"[3]; myo-inositol 0%, 90 seconds",1.50 g per 16 oz.
same,Dissolved amino acid (g per 16 oz.),"[3]; myo-inositol 0%, 240 seconds",1.71 g per 16 oz.
same,Dissolved amino acid (g per 16 oz.),"[3]; myo-inositol 0%, 600 seconds",1.74 g per 16 oz.
same,Dissolved amino acid (g per 16 oz.),"[3]; myo-inositol 1%, 30 seconds",1.09 g per 16 oz.
same,Dissolved amino acid (g per 16 oz.),"[3]; myo-inositol 1%, 60 seconds",1.39 g per 16 oz.
same,Dissolved amino acid (g per 16 oz.),"[3]; myo-inositol 1%, 90 seconds",1.51 g per 16 oz.
same,Dissolved amino acid (g per 16 oz.),"[3]; myo-inositol 1%, 240 seconds",1.71 g per 16 oz.
same,Dissolved amino acid (g per 16 oz.),"[3]; myo-inositol 1%, 600 seconds",1.71 g per 16 oz.
same,Dissolved amino acid (g per 16 oz.),"[3]; myo-inositol 2%, 30 seconds",1.07 g per 16 oz.
same,Dissolved amino acid (g per 16 oz.),"[3]; myo-inositol 2%, 60 seconds",1.33 g per 16 oz.
same,Dissolved amino acid (g per 16 oz.),"[3]; myo-inositol 2%, 90 seconds",1.46 g per 16 oz.
same,Dissolved amino acid (g per 16 oz.),"[3]; myo-inositol 2%, 240 seconds",1.66 g per 16 oz.
same,Dissolved amino acid (g per 16 oz.),"[3]; myo-inositol 2%, 600 seconds",1.70 g per 16 oz.
same,Dissolved amino acid (g per 16 oz.),"[3]; myo-inositol 4%, 30 seconds",1.14 g per 16 oz.
same,Dissolved amino acid (g per 16 oz.),"[3]; myo-inositol 4%, 60 seconds",1.39 g per 16 oz.
same,Dissolved amino acid (g per 16 oz.),"[3]; myo-inositol 4%, 90 seconds",1.52 g per 16 oz.
same,Dissolved amino acid (g per 16 oz.),"[3]; myo-inositol 4%, 240 seconds",1.70 g per 16 oz.
same,Dissolved amino acid (g per 16 oz.),"[3]; myo-inositol 4%, 600 seconds",1.72 g per 16 oz.
same,Dissolved amino acid (g per 16 oz.),"[3]; myo-inositol 8%, 30 seconds",1.09 g per 16 oz.
same,Dissolved amino acid (g per 16 oz.),"[3]; myo-inositol 8%, 60 seconds",1.38 g per 16 oz.
same,Dissolved amino acid (g per 16 oz.),"[3]; myo-inositol 8%, 90 seconds",1.48 g per 16 oz.
same,Dissolved amino acid (g per 16 oz.),"[3]; myo-inositol 8%, 240 seconds",1.72 g per 16 oz.
same,Dissolved amino acid (g per 16 oz.),"[3]; myo-inositol 8%, 600 seconds",1.74 g per 16 oz.
OC1C(O)C(O)C(O)C(O)C1O (centres unmarked) [allo-inositol],enhancement of dissolution rate of L-leucine by inositol isomer,[1],most enhanced
same,Leu dissolved at 30 seconds (g/16 oz.),[1],0.792 g/16 oz.
same,Leu dissolved at 60 seconds (% of total Leu),[1],40.4 % of total Leu
same,Leu dissolved at 60 seconds (g/16 oz.),[1],1.41 g/16 oz.
